In patent US7973061B2, “Anaplastic lymphoma kinase modulators and methods of use” (Exelixis, Inc., priority 2004, dated 2011):

Each compound was assayed against T1, ALK (baculovirus expressed human ALK kinase domain F1098-K1410) (Homo sapiens, UniProt Q9UM73) (assay: biochemical). Details: 1 μM ATP, 4 μM poly-AEKY, 12 nM ALK, 2 hours at ambient temperature; read-out: ALK IC50.
T1 construct: human ALK kinase domain F1098-K1410; made in house
Summary of the method: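 Inhibitors were tested at 10 concentrations, and IC50 was derived from a sigmoidal fit (Min, Max, Hill slope). Kinase activity was measured as percent ATP left after a 2 h reaction at room temperature, detected by luciferase-luciferin chemiluminescence. The ATP level was set close to KM for the ALK kinase domain F1098-K1410.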

T1 sequence (Q9UM73 1098-1410): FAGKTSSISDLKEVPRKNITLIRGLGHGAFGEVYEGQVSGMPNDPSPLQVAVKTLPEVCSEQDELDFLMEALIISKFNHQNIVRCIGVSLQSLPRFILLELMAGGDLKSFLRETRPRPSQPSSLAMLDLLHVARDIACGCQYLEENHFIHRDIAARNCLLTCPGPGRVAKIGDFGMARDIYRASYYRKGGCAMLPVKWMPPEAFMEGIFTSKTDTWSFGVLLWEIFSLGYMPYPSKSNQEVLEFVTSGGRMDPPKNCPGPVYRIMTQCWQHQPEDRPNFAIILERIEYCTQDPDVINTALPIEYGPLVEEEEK

SMILES | IC50 [nM]
CC(C)c1ccc(CC(=O)NCc2nc(C(=O)NCCc3cccc(Cl)c3)cs2)cc1 [Entry 50, N-[2-(3-chlorophenyl)ethyl]-2-[({[4-(1-methylethyl)phenyl]acetyl}amino)methyl]-1,3-thiazole-4-carboxamide] | 50 to 500
COc1cccc(CNC(=O)c2csc(CNC(=O)c3cccnc3Oc3ccc(Cl)cc3)n2)c1OC [Entry 144, N-({4-[({[2,3-bis(methyloxy)phenyl]methyl}amino)carbonyl]-1,3-thiazol-2-yl}methyl)-2-[(4-chlorophenyl)oxy]pyridine-3-carboxamide] | 50 to 500
O=C(COc1ccc(OC(F)(F)F)cc1)NCc1nc(C(=O)NCC(c2ccccc2)c2ccccc2)cs1 [Entry 18, N-(2,2-diphenylethyl)-2-({[({4-[(trifluoromethyl)oxy]phenyl}oxy)acetyl]amino}methyl)-1,3-thiazole-4-carboxamide] | < 50
CC(C)C[C@@H](NC(=O)c1csc(CNC(=O)COc2ccc(OC(F)(F)F)cc2)n1)C(N)=O [Entry 202, N~2~-{[2-({[({4-[(trifluoromethyl)oxy]phenyl}oxy)acetyl]amino}methyl)-1,3-thiazol-4-yl]carbonyl}-D-leucinamide] | 50 to 500
CC(C)C(C)NC(=O)c1csc(CNC(=O)COc2ccc(OC(F)(F)F)cc2)n1 (stereo not drawn) [Entry 197, N-(1,2-dimethylpropyl)-2-({[({4-[(trifluoromethyl)oxy]phenyl}oxy)acetyl]amino}methyl)-1,3-thiazole-4-carboxamide] | 50 to 500
CCCCCC(C)NC(=O)c1csc(CNC(=O)COc2ccc(OC(F)(F)F)cc2)n1 (stereo not drawn) [Entry 179, N-(1-methylhexyl)-2-({[({4-[(trifluoromethyl)oxy]phenyl}oxy)acetyl]amino}methyl)-1,3-thiazole-4-carboxamide] | 50 to 500
CCCCCCN(CCC#N)C(=O)c1csc(CNC(=O)COc2ccc(OC(F)(F)F)cc2)n1 [Entry 238, N-(2-cyanoethyl)-N-hexyl-2-({[({4-[(trifluoromethyl)oxy]phenyl}oxy)acetyl]amino}methyl)-1,3-thiazole-4-carboxamide] | 500 to 2000
CC(C)c1ccc(NC(=O)NCc2nc(C(=O)NCCc3ccccc3F)cs2)cc1 [Entry 27, N-[2-(2-fluorophenyl)ethyl]-2-{[({[4-(1-methylethyl)phenyl]amino}carbonyl)amino]methyl}-1,3-thiazole-4-carboxamide] | < 50
COc1cccc(CNC(=O)c2csc(CNC(=O)COc3ccc(C(C)C)cc3)n2)c1OC [Entry 125, N-{[2,3-bis(methyloxy)phenyl]methyl}-2-{[({[4-(1-methylethyl)phenyl]oxy}acetyl)amino]methyl}-1,3-thiazole-4-carboxamide] | 50 to 500
O=C(COc1ccc(OC(F)(F)F)cc1)NCc1nc(C(=O)NCC(F)(F)F)cs1 [Entry 280, N-(2,2,2-trifluoroethyl)-2-({[({4-[(trifluoromethyl)oxy]phenyl}oxy)acetyl]amino}methyl)-1,3-thiazole-4-carboxamide] | 500 to 2000

Continued, values first:

IC50 [nM] | SMILES
50 to 500 | O=C(COc1ccc(OC(F)(F)F)cc1)NCc1nc(C(=O)NCc2cc(F)ccc2F)cs1 [Entry 61, N-[(2,5-difluorophenyl)methyl]-2-({[({4-[(trifluoromethyl)oxy]phenyl}oxy)acetyl]amino}methyl)-1,3-thiazole-4-carboxamide]
50 to 500 | O=C(COc1ccc(OC(F)(F)F)cc1)NCc1nc(C(=O)NCCc2ccccc2Oc2ccccc2)cs1 [Entry 213, N-{2-[2-(phenyloxy)phenyl]ethyl}-2-({[({4-[(trifluoromethyl)oxy]phenyl}oxy)acetyl]amino}methyl)-1,3-thiazole-4-carboxamide]
50 to 500 | CC(NC(=O)c1coc(CNC(=O)COc2ccc(OC(F)(F)F)cc2)n1)c1cccc2ccccc12 (stereo not drawn) [Entry 99, N-(1-naphthalen-1-ylethyl)-2-({[({4-[(trifluoromethyl)oxy]phenyl}oxy)acetyl]amino}methyl)-1,3-oxazole-4-carboxamide]
50 to 500 | O=C(COc1ccc(OC(F)(F)F)cc1)NCc1nc(C(=O)N2CCc3ccccc3C2)cs1 [Entry 139, N-{[4-(3,4-dihydroisoquinolin-2(1H)-ylcarbonyl)-1,3-thiazol-2-yl]methyl}-2-({4-[(trifluoromethyl)oxy]phenyl}oxy)acetamide]
50 to 500 | CCSCCNC(=O)c1csc(CNC(=O)COc2ccc(OC(F)(F)F)cc2)n1 [Entry 146, N-[2-(ethylthio)ethyl]-2-({[({4-[(trifluoromethyl)oxy]phenyl}oxy)acetyl]amino}methyl)-1,3-thiazole-4-carboxamide]
50 to 500 | O=C(COc1ccc(OC(F)(F)F)cc1)NCc1nc(C(=O)NCc2ccc(F)c(F)c2)cs1 [Entry 185, N-[(3,4-difluorophenyl)methyl]-2-({[({4-[(trifluoromethyl)oxy]phenyl}oxy)acetyl]amino}methyl)-1,3-thiazole-4-carboxamide]
50 to 500 | Cc1ccc(CCNC(=O)c2csc(CNC(=O)COc3ccc(OC(F)(F)F)cc3)n2)cc1 [Entry 36, N-[2-(4-methylphenyl)ethyl]-2-({[({4-[(trifluoromethyl)oxy]phenyl}oxy)acetyl]amino}methyl)-1,3-thiazole-4-carboxamide]
50 to 500 | CSc1ccccc1CNC(=O)c1csc(CNC(=O)COc2ccc(OC(F)(F)F)cc2)n1 [Entry 41, N-{[2-(methylthio)phenyl]methyl}-2-({[({4-[(trifluoromethyl)oxy]phenyl}oxy)acetyl]amino}methyl)-1,3-thiazole-4-carboxamide]
> 2000 | O=C(NCCc1cccc(Cl)c1)c1csc(CNCc2ccc(OC(F)(F)F)cc2)n1 [Entry 309, N-[2-(3-chlorophenyl)ethyl]-2-{[({4-[(trifluoromethyl)oxy]phenyl}methyl)amino]methyl}-1,3-thiazole-4-carboxamide]
500 to 2000 | O=C(COc1ccc(OC(F)(F)F)cc1)NCc1nc(C(=O)NCc2ccccc2Cl)co1 [Entry 261, N-[(2-chlorophenyl)methyl]-2-({[({4-[(trifluoromethyl)oxy]phenyl}oxy)acetyl]amino}methyl)-1,3-oxazole-4-carboxamide]
> 2000 | O=C(COc1ccc(OC(F)(F)F)cc1)NCc1cc(C(=O)NCCc2cccc(Cl)c2)no1 [Entry 299, N-[2-(3-chlorophenyl)ethyl]-5-({[({4-[(trifluoromethyl)oxy]phenyl}oxy)acetyl]amino}methyl)isoxazole-3-carboxamide]
